“And” between values parts separate entries of the source, which are not always exact repeats. Identical values can stand only once.

The results in this text go back to patent US5603917A, “Methods for the in vivo measurement of the concentration of NMR-detectable xenobiotic compounds” (Bracco International B. V., priority 1994, dated 1997).

The nature of data set [1]: In vivo proton T1 measurement at rat tail, elimination of ProHance® (kidney status). As to conditions: intravenous 0.5 mmol/kg ProHance®, 20 MHz, 0.5 Tesla, 40° C. The method, then:
The measurement site was the tail of the subject rat, which was hung into the sample tube of a Brucker/IBM PC 20 Spin Analyzer (commerically available).
Rat proton T1 data were recorded both before and after intravenous injection of 0.5 mmol/kg ProHance®. The T1 measurements were made by the inversion-recovery method (Fukushima et al., Experimental Pulse NMR, a Nuts and Bolts Approach (Addison-Wesley 1981)) at 20 MHz and 0.5 Tesla at 40° C. with the IBM PC 20 relaxometer by sampling the section of the rat tail about 10 mm from the tip. The proton T1 change upon the injection of ProHance® was followed for 2 hours at 5 minute intervals after injection. The logarithms of the differences in the T1 relaxation rate (reciprocal of T1 relaxation time) before and after injection, log(1/T1 -1/T10), were plotted as a function of time. The elimination halftimes (T1/2) were calculated from the slopes of the log plots. The proton T1 data of a nephrectomized rat were also collected and used for comparison with the behaviour of normal rats (see FIG. 1).
(§1) Runs involving simultaneous intravenous injection administrations of 0.5 mmol/kg ProHance®, ^153 Gd-labeled ProHance® and ^99m Tc(DTPA) (Techneplex™, technetium-diethylenetriamine pentaacetic acid), the latter to determine glomerular filtration rate by in vitro methods as a validation experiment, were also carried out. In these runs, rat blood samples and tail T1 data were acquired at the same time intervals from the same rat, and with multiple subjects (n=3). The blood samples were assayed in vitro to determine the amounts of ^153 Gd-labeled ProHance® and ^99m Tc(DTPA) in the blood, and the percentage changes in the blood pool concentrations of ^153 Gd-labeled ProHance® and ^99m Tc(DTPA) were plotted as a function of time to obtain the T1/2 values. The T1/2 data were also calculated from the slopes of the log(1/T1 -1/T10) versus time plots. These two sets of rat T1/2 data are shown in Table 1, and are also compared in FIG. 2.

Data set [2] is described as follows: Blood sampling with in vitro assay of ^153 Gd-labeled ProHance® and ^99m Tc(DTPA), elimination from rat blood pool (validation experiment). It counts as in vivo. The settings on record: rats #5 to #7; blood samples; simultaneous intravenous injection; same values obtained for ^153 Gd and ^99m Tc. The method, then:
as §1

The mark [3] stands for this setting: normal rats #1 to #7, one value per rat, 2 hours at 5 minute intervals.

With `CC(O)CN1CCN(CC(=O)[O-])CCN(CC(=O)[O-])CCN(CC(=O)[O-])CC1.[Gd+3]` (stereo not drawn) [ProHance®, Gd-hydroxypropyl tetraazacylododecanetriacetic acid], the “Elimination Halftime T1/2 From Slope” value was 2,000 ± 4,000 min in data set [1] (nephrectomized rat); 35 ± 5 min and 32 ± 2 min and 25 ± 4 min and 30 ± 3 min and 36 ± 2 min and 20 ± 2 min in data set [1] (setting [3]). Further, the “Slope of Log (1/T1 - 1/T10) vs Time Plot” value was 0.0003 ± 0.0006 in data set [1] (nephrectomized rat); 0.0093 ± 0.0006 and 0.012 ± 0.0020 and 0.010 ± 0.0012 and 0.0083 ± 0.0005 and 0.015 ± 0.0016 and 0.0087 ± 0.0012 in data set [1] (setting [3]).

Take `CC(O)CN1CCN(CC(=O)[O-])CCN(CC(=O)[O-])CCN(CC(=O)[O-])CC1.[Gd+3]` (stereo not drawn) [^153 Gd-labeled ProHance®]: in data set [2], the “Elimination Halftime T1/2 From ^153 Gd and ^99m Tc” value is 31 min.

In the case of “technetium-diethylenetriamine pentaacetic acid [^99m Tc(DTPA)]”, the “Elimination Halftime T1/2 From ^153 Gd and ^99m Tc” value in data set [2] worked out at 31 min.
